Data on 12 compounds can be found in ChEMBL document CHEMBL1201862, “PubChem BioAssay data set” (2004).

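Following 48 hours of exposure in 96-well plates, responses at five concentrations were used to interpolate endpoints linearly. The concentration for 50% growth inhibition is given as GI50.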 Activity calls are given as the source filed them. Rule as the data show it: active = GI50 up to about 1.1 µM and inactive = higher.

Test systems include 786-0; A498; CAKI-1; HCC 2998; HCT-15; HL-60; M14; MDA-MB-231; MOLT-4; NCI-H460; OVCAR-4; SK-MEL-2; SN12C; SR; UACC-257; UO-31; DU-145; RXF 393; NCI-H226; SF-539.
Common to all, as to assay: inhibition of tumour cell growth, NCI panel, 48 h

As to `Cc1cc2c(cc1O)CC[C@@H]1[C@@H]2CC[C@]2(C)[C@@H](O)CC[C@@H]12`, the GI50 with 786-0 is 14.6 µM (inactive); in the assay on A498 it was 18.7 µM (inactive); with CAKI-1 it was 16.9 µM (inactive); with HCC 2998 it was 11.4 µM (inactive); with HCT-15 it was 4.08 µM; with HL-60, 1.73 µM (inactive). The GI50 in the assay with M14 was 7.24 µM (inactive); in the assay with MDA-MB-231, 9.38 µM (inactive); in the assay with MOLT-4, 3.68 µM (inactive); with NCI-H460, 8.65 µM (inactive); with OVCAR-4 it was 12.4 µM (inactive); in the assay on SK-MEL-2, 5.48 µM (inactive). The GI50 with SN12C was 13.3 µM (inactive); with SR it was 1.83 µM (inactive); with UACC-257, 15.3 µM (inactive); in the assay with UO-31, 14.8 µM (inactive).

For `CCOC(=O)CSC1NC(C(=O)OC)CC1OC` (stereo unspecified), the GI50 in the assay on 786-0 was > 100 µM (inactive); in the assay on A498 it was > 100 µM (inactive); in the assay with CAKI-1, > 100 µM (inactive); in the assay with DU-145 it was > 100 µM (inactive); with HCC 2998, > 100 µM (inactive); with HCT-15, above 100 µM. Moreover, the GI50 was > 100 µM (inactive) in the assay on M14; > 100 µM (inactive) in the assay on MDA-MB-231; > 100 µM (inactive) in the assay with MOLT-4; 67.6 µM (inactive) in the assay on NCI-H460; > 100 µM (inactive) with OVCAR-4; > 100 µM (inactive) in the assay with RXF 393. For the same compound, the GI50 in the assay with SK-MEL-2, in the assay on UACC-257 and in the assay with UO-31 was > 100 µM (inactive) each time.

As for `CN(C)/N=N/c1nc2c(c(=O)n(C)c(=O)n2C)n1CC(O)CO` (stereo unspecified), the GI50 in the assay on 786-0 is > 100 µM (inactive); in the assay with CAKI-1, > 100 µM (inactive); in the assay on DU-145, > 100 µM (inactive); in the assay with HCC 2998, > 100 µM (inactive); in the assay on HCT-15, above 100 µM; in the assay on HL-60, > 100 µM (inactive). Also, the GI50 in the assay on M14, in the assay on MDA-MB-231, with MOLT-4, in the assay on NCI-H226, in the assay on NCI-H460 and with OVCAR-4 was > 100 µM (inactive) throughout. The GI50 in the assay with RXF 393, with SK-MEL-2, with SN12C, in the assay on UACC-257 and in the assay with UO-31 was > 100 µM (inactive) throughout.

As for `COc1cc(OC)c(C/C=C/c2ccccc2)cc1O`, the GI50 in the assay on 786-0 was 18.2 µM (inactive); in the assay with A498 it was 14.8 µM (inactive); in the assay with CAKI-1, 21.5 µM (inactive); in the assay on DU-145, 17.1 µM (inactive); with HCC 2998, 16.3 µM (inactive); in the assay with HCT-15 it was 16.5 µM. For the same compound, the GI50 was 19.3 µM (inactive) in the assay with HL-60; 19 µM (inactive) with M14; 17.9 µM (inactive) in the assay on MDA-MB-231; 11.8 µM (inactive) in the assay with MOLT-4; 17.9 µM (inactive) in the assay on NCI-H226; 17.3 µM (inactive) in the assay on NCI-H460. In addition, the GI50 is 14 µM (inactive) with OVCAR-4; 16.2 µM (inactive) with SF-539; 19.4 µM (inactive) in the assay with SK-MEL-2; 16 µM (inactive) in the assay on SN12C; 23.6 µM (inactive) with UACC-257; 14.7 µM (inactive) in the assay with UO-31.

As for `O=C1C2=C(CC3C(C2)C3(Br)Br)C(=O)C2=C1CC1C(C2)C1(Br)Br` (stereo unspecified), the GI50 with 786-0 is > 100 µM (inactive); with A498, > 100 µM (inactive); in the assay on CAKI-1, > 100 µM (inactive); with HCC 2998, > 100 µM (inactive); in the assay on HCT-15, above 100 µM; with HL-60 it was > 100 µM (inactive). Also, the GI50 in the assay with M14, in the assay with MOLT-4, with NCI-H226, in the assay on NCI-H460, in the assay on OVCAR-4 and in the assay on RXF 393 was > 100 µM (inactive) throughout. In addition, the GI50 in the assay with SF-539, with SK-MEL-2, in the assay with SN12C, with SR, in the assay on UACC-257 and in the assay on UO-31 was > 100 µM (inactive) throughout.

`Clc1ccc(COC(Cn2ccnc2)c2ccc(Cl)cc2Cl)c(Cl)c1` (stereo unspecified) [MICONAZOLE]: the GI50 in the assay with 786-0 is 7.33 µM (inactive); with CAKI-1, 13.6 µM (inactive); with DU-145, 15.7 µM (inactive); in the assay on HCC 2998 it was 17.1 µM (inactive); in the assay with HCT-15, 10.8 µM; with HL-60, 3.78 µM (inactive). Further, the GI50 in the assay with M14 was 12.6 µM (inactive); in the assay on MDA-MB-231 it was 12.6 µM (inactive); in the assay with MOLT-4 it was 4.33 µM (inactive); in the assay with NCI-H460, 17.5 µM (inactive); with OVCAR-4 it was 10.1 µM (inactive); in the assay with SF-539, 13.8 µM (inactive). The GI50 is 16.2 µM (inactive) in the assay on SK-MEL-2, 13.6 µM (inactive) in the assay with SN12C, 13.6 µM (inactive) with UACC-257 and 3.82 µM (inactive) with UO-31.

Consider `COC(=O)C1=CC(=O)C(C(=O)Nc2ccc(OC)cc2)C(c2ccccc2)O1` (stereo unspecified), for which the GI50 is 20.7 µM (inactive) in the assay on 786-0; 29.2 µM (inactive) in the assay with A498; 25.2 µM (inactive) in the assay with CAKI-1; > 53.8 µM (inactive) in the assay with HCC 2998; 40.6 µM in the assay with HCT-15; > 84.3 µM (inactive) with HL-60. In addition, the GI50 with M14 was 33.1 µM (inactive); in the assay with MOLT-4, > 74.5 µM (inactive); with NCI-H226, 21.9 µM (inactive); in the assay with NCI-H460 it was 43.9 µM (inactive); with OVCAR-4, 28.4 µM (inactive); with RXF 393, 23.5 µM (inactive). Besides, the GI50 in the assay on SF-539 was 21.4 µM (inactive); with SK-MEL-2, > 81.7 µM (inactive); with SN12C it was 47.5 µM (inactive); in the assay with SR, 44.5 µM (inactive); in the assay with UACC-257, 72.8 µM (inactive); in the assay on UO-31 it was 30.5 µM (inactive).

Take `COC(=O)c1cc(-c2ccc(OC)c(OC)c2)oc1-c1ccc(OC)c(OC)c1`: the GI50 in the assay on 786-0 is 37.3 µM (inactive); with A498, 18.7 µM (inactive); with CAKI-1, 54.7 µM (inactive); in the assay on HCC 2998 it was 81.8 µM (inactive); in the assay on HCT-15 it was 47.2 µM; in the assay on HL-60, 64.7 µM (inactive). The GI50 in the assay on M14 is 55.8 µM (inactive); in the assay with MOLT-4, 32.7 µM (inactive); in the assay with NCI-H226 it was 34.3 µM (inactive); in the assay with NCI-H460, 48.5 µM (inactive); in the assay with OVCAR-4, 62.5 µM (inactive); with RXF 393, 19.1 µM (inactive). In addition, the GI50 in the assay on SF-539 was 21.2 µM (inactive); with SK-MEL-2 it was 44.9 µM (inactive); with SN12C, 26.8 µM (inactive); in the assay with SR, 28.6 µM (inactive); in the assay with UACC-257, 37.6 µM (inactive); in the assay with UO-31, 35.6 µM (inactive).

Consider `CCOC(=O)/C(=C\NC[C@@H](C)O)c1nc2ccccc2[nH]1`, for which the GI50 was > 100 µM (inactive) in the assay with 786-0; 55 µM (inactive) in the assay with A498; > 100 µM (inactive) in the assay on CAKI-1; > 100 µM (inactive) in the assay with DU-145; 37.4 µM (inactive) in the assay with HCC 2998; 73.3 µM with HCT-15. In addition, the GI50 is 20.4 µM (inactive) in the assay with HL-60; 56 µM (inactive) in the assay on M14; 0.238 µM (active) in the assay on MOLT-4; 33.3 µM (inactive) in the assay on NCI-H460; 83.8 µM (inactive) with OVCAR-4; > 100 µM (inactive) in the assay with RXF 393. The GI50 with SF-539 was > 100 µM (inactive); with SN12C, 93.1 µM (inactive); in the assay with SR, 0.0473 µM (active); in the assay with UACC-257, 56 µM (inactive); with UO-31, 0.33 µM (active).

Turning to `CC1(C)COC(c2ccc(C(=O)c3ccc(Cl)cc3)cc2)=N1`, the GI50 in the assay on 786-0 is > 100 µM (inactive); with CAKI-1, > 100 µM (inactive); in the assay on DU-145, > 100 µM (inactive); in the assay on HCC 2998 it was > 100 µM (inactive); with HCT-15 it was above 100 µM; with HL-60 it was 43.5 µM (inactive). The GI50 with M14 was > 100 µM (inactive); with MDA-MB-231, > 100 µM (inactive); with MOLT-4 it was 98.2 µM (inactive); with NCI-H226, 23 µM (inactive); in the assay on NCI-H460 it was > 100 µM (inactive); in the assay with RXF 393, 79.6 µM (inactive). Moreover, the GI50 in the assay on SF-539 is > 100 µM (inactive); in the assay on SK-MEL-2 it was > 100 µM (inactive); in the assay with SN12C, > 100 µM (inactive); in the assay on UACC-257, 10.7 µM (inactive); in the assay with UO-31 it was 58.7 µM (inactive).

With `O=c1c(Br)cc2nc3ccccc3sc-2c1Br`, the GI50 is 15.4 µM (inactive) in the assay on 786-0; > 100 µM (inactive) in the assay on A498; > 100 µM (inactive) with CAKI-1; > 100 µM (inactive) in the assay on HCC 2998; above 68.7 µM in the assay on HCT-15; 16.3 µM (inactive) in the assay on HL-60. The GI50 was > 100 µM (inactive) in the assay with M14; 22.2 µM (inactive) in the assay with MOLT-4; > 100 µM (inactive) in the assay on NCI-H226; > 100 µM (inactive) with NCI-H460; 24 µM (inactive) in the assay on OVCAR-4; > 100 µM (inactive) in the assay with RXF 393. Besides, the GI50 is > 83.9 µM (inactive) in the assay with SF-539; > 100 µM (inactive) in the assay with SK-MEL-2; > 100 µM (inactive) in the assay with SN12C; 53.5 µM (inactive) in the assay with SR; 31.3 µM (inactive) in the assay with UACC-257; > 100 µM (inactive) in the assay with UO-31.

In the case of `Cc1cc(=O)n2c(cc3cccccc32)n1`, the GI50 was > 100 µM (inactive) in the assay on 786-0; > 100 µM (inactive) with A498; > 100 µM (inactive) in the assay with CAKI-1; > 100 µM (inactive) in the assay with HCC 2998; above 100 µM with HCT-15; > 100 µM (inactive) with HL-60. The GI50 in the assay on M14, with MOLT-4, with NCI-H226, in the assay on NCI-H460, in the assay with OVCAR-4 and with RXF 393 was > 100 µM (inactive) each time. Further, the GI50 in the assay on SF-539, with SK-MEL-2, in the assay with SN12C, with SR, in the assay with UACC-257 and with UO-31 was > 100 µM (inactive) throughout.
